Assay results: US6525001B1, “Substituted pyrimidine and pyridine herbicides” (Mid-American Commercialization Corporation, priority 1997, dated 2003)

Legend:
Type in all cases: in vivo
[1] = system: bedstraw (Galium aparine); assay: Test B pre-/postemergence; set-up: key: 0 is no effect; 10 is complete control
Procedure, shortened: (§1)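 Scored visually 0 (none) to 10 (complete control) against untreated plants after twelve to sixteen greenhouse days. Test chemicals, formulated in surfactant-containing non-phytotoxic solvent, applied to soil after planting and, separately, onto 1- to 4-leaf (2–18 cm) plants.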

[2] = system: broadleaf signalgrass (Brachiaria decumbens); assay: Test B pre-/postemergence; set-up: key: 0 is no effect; 10 is complete control
Procedure, shortened: as §1

[3] = system: giant foxtail (Setaria faberii); assay: Test B pre-/postemergence; set-up: key: 0 is no effect; 10 is complete control
Procedure, shortened: as §1

[4] = system: momingglory (Ipomoea hederacea); assay: Test B pre-/postemergence; set-up: key: 0 is no effect; 10 is complete control
Procedure, shortened: as §1

[5] = system: wild oat (Avena fatua); assay: Test B pre-/postemergence; set-up: key: 0 is no effect; 10 is complete control
Procedure, shortened: as §1

[6] = system: cocklebur (Xanthium strumarium); assay: Test C; set-up: key: 0 was no effect; 100 was complete control; details: PREEMERGENCE
[7] = system: common ragweed (Ambrosia elatior); assay: Test C; set-up: key: 0 was no effect; 100 was complete control; details: PREEMERGENCE
[8] = system: corn (Zea mays); assay: Test C; set-up: key: 0 was no effect; 100 was complete control; details: PREEMERGENCE
[9] = system: cotton (Gossypium hirsutum); assay: Test C; set-up: key: 0 was no effect; 100 was complete control; details: PREEMERGENCE
[10] = system: giant foxtail (Setaria faberii); assay: Test C; set-up: key: 0 was no effect; 100 was complete control; details: PREEMERGENCE
[11] = system: ladysthumb smartweed (Polygonum persicaria); assay: Test C; set-up: key: 0 was no effect; 100 was complete control; details: PREEMERGENCE
[12] = system: surinam grass (Brachiaria decumbens); assay: Test C; set-up: key: 0 was no effect; 100 was complete control; details: PREEMERGENCE
[13] = system: velvetleaf (Abutilon theophrasti); assay: Test C; set-up: key: 0 was no effect; 100 was complete control; details: PREEMERGENCE

Cc1cnc(-c2ccc(C(F)(F)F)cc2)nc1C(Cl)c1cccc(C(F)(F)F)c1 (racemic) [Compound 21]
Plant response rating, Bedstraw ([1]; Rate 62 g/ha, Postemergence): 5
Bedstraw plant response rating ([1]; Rate 62 g/ha, Preemergence): 0
Plant response rating, Bedstraw ([1]; Rate 125 g/ha, Postemergence): 9
Bedstraw plant response rating ([1]; Rate 125 g/ha, Preemergence): 1
Plant response rating, Bedstraw ([1]; Rate 250 g/ha, Postemergence): 9
Plant response rating, Bedstraw ([1]; Rate 250 g/ha, Preemergence): 8
Plant response rating, B. signalgrass ([2]; Rate 62 g/ha, Postemergence): 3
B. signalgrass plant response rating ([2]; Rate 62 g/ha, Preemergence): 2
Plant response rating, B. signalgrass ([2]; Rate 125 g/ha, Postemergence): 4
B. signalgrass plant response rating ([2]; Rate 125 g/ha, Preemergence): 3
Plant response rating, B. signalgrass ([2]; Rate 250 g/ha, Postemergence): 7
Plant response rating, B. signalgrass ([2]; Rate 250 g/ha, Preemergence): 8
Plant response rating, Giant foxtail ([3]; Rate 62 g/ha, Postemergence): 1
Giant foxtail plant response rating ([3]; Rate 62 g/ha, Preemergence): 5
Plant response rating, Giant foxtail ([3]; Rate 125 g/ha, Postemergence): 8
Giant foxtail plant response rating ([3]; Rate 125 g/ha, Preemergence): 8
Plant response rating, Giant foxtail ([3]; Rate 250 g/ha, Postemergence): 9
Plant response rating, Giant foxtail ([3]; Rate 250 g/ha, Preemergence): 9
Plant response rating, Morningglory ([4]; Rate 62 g/ha, Postemergence): 8
Morningglory plant response rating ([4]; Rate 62 g/ha, Preemergence): 1
Plant response rating, Morningglory ([4]; Rate 125 g/ha, Postemergence): 8
Morningglory plant response rating ([4]; Rate 125 g/ha, Preemergence): 1
Plant response rating, Morningglory ([4]; Rate 250 g/ha, Postemergence): 9
Plant response rating, Morningglory ([4]; Rate 250 g/ha, Preemergence): 6
Plant response rating, Wild oats ([5]; Rate 62 g/ha, Postemergence): 4
Wild oats plant response rating ([5]; Rate 62 g/ha, Preemergence): 4
Plant response rating, Wild oats ([5]; Rate 125 g/ha, Postemergence): 5
Wild oats plant response rating ([5]; Rate 125 g/ha, Preemergence): 5
Plant response rating, Wild oats ([5]; Rate 250 g/ha, Postemergence): 6
Plant response rating, Wild oats ([5]; Rate 250 g/ha, Preemergence): 8
Plant response rating, Cocklebur ([6]; Rate 35 g/ha): 0
Plant response rating, Cocklebur ([6]; Rate 70 g/ha): 0
Plant response rating, Cocklebur ([6]; Rate 140 g/ha): 0
Plant response rating, Common ragweed ([7]; Rate 35 g/ha): 0
Plant response rating, Common ragweed ([7]; Rate 70 g/ha): 0
Plant response rating, Common ragweed ([7]; Rate 140 g/ha): 20
Plant response rating, Corn ([8]; Rate 35 g/ha): 0
Plant response rating, Corn ([8]; Rate 70 g/ha): 0
Plant response rating, Corn ([8]; Rate 140 g/ha): 0
Plant response rating, Cotton ([9]; Rate 35 g/ha): 0
Plant response rating, Cotton ([9]; Rate 70 g/ha): 5
Plant response rating, Cotton ([9]; Rate 140 g/ha): 20
Plant response rating, Giant foxtail ([10]; Rate 35 g/ha): 85
Plant response rating, Giant foxtail ([10]; Rate 70 g/ha): 100
Plant response rating, Giant foxtail ([10]; Rate 140 g/ha): 100
Plant response rating, Ladysthumb ([11]; Rate 35 g/ha): 0
Plant response rating, Ladysthumb ([11]; Rate 140 g/ha): 5
Plant response rating, Surinam grass ([12]; Rate 35 g/ha): 0
Plant response rating, Surinam grass ([12]; Rate 70 g/ha): 5
Plant response rating, Surinam grass ([12]; Rate 140 g/ha): 10
Plant response rating, Velvetleaf ([13]; Rate 35 g/ha): 0
Plant response rating, Velvetleaf ([13]; Rate 70 g/ha): 50
Plant response rating, Velvetleaf ([13]; Rate 140 g/ha): 50

Cc1cnc(-c2ccc(C(F)(F)F)cc2)nc1Cc1cccc(OC(F)(F)F)c1 [Compound 15]
Plant response rating, Bedstraw ([1]; Rate 62 g/ha, Postemergence): 9
Bedstraw plant response rating ([1]; Rate 62 g/ha, Preemergence): 6
Plant response rating, Bedstraw ([1]; Rate 125 g/ha, Postemergence): 9
Bedstraw plant response rating ([1]; Rate 125 g/ha, Preemergence): 8
Plant response rating, Bedstraw ([1]; Rate 250 g/ha, Postemergence): 9
Plant response rating, Bedstraw ([1]; Rate 250 g/ha, Preemergence): 8
Plant response rating, B. signalgrass ([2]; Rate 62 g/ha, Postemergence): 4
B. signalgrass plant response rating ([2]; Rate 62 g/ha, Preemergence): 9
Plant response rating, B. signalgrass ([2]; Rate 125 g/ha, Postemergence): 4
B. signalgrass plant response rating ([2]; Rate 125 g/ha, Preemergence): 9
Plant response rating, B. signalgrass ([2]; Rate 250 g/ha, Postemergence): 8
Plant response rating, B. signalgrass ([2]; Rate 250 g/ha, Preemergence): 9
Plant response rating, Giant foxtail ([3]; Rate 62 g/ha, Postemergence): 7
Giant foxtail plant response rating ([3]; Rate 62 g/ha, Preemergence): 10
Plant response rating, Giant foxtail ([3]; Rate 125 g/ha, Postemergence): 7
Giant foxtail plant response rating ([3]; Rate 125 g/ha, Preemergence): 10
Plant response rating, Giant foxtail ([3]; Rate 250 g/ha, Postemergence): 8
Plant response rating, Giant foxtail ([3]; Rate 250 g/ha, Preemergence): 10
Plant response rating, Morningglory ([4]; Rate 62 g/ha, Postemergence): 8
Morningglory plant response rating ([4]; Rate 62 g/ha, Preemergence): 4
Plant response rating, Morningglory ([4]; Rate 125 g/ha, Postemergence): 8
Morningglory plant response rating ([4]; Rate 125 g/ha, Preemergence): 7
Plant response rating, Morningglory ([4]; Rate 250 g/ha, Postemergence): 9
Plant response rating, Morningglory ([4]; Rate 250 g/ha, Preemergence): 9
Plant response rating, Wild oats ([5]; Rate 62 g/ha, Postemergence): 6
Wild oats plant response rating ([5]; Rate 62 g/ha, Preemergence): 8
Plant response rating, Wild oats ([5]; Rate 125 g/ha, Postemergence): 7
Wild oats plant response rating ([5]; Rate 125 g/ha, Preemergence): 9
Plant response rating, Wild oats ([5]; Rate 250 g/ha, Postemergence): 9
Plant response rating, Wild oats ([5]; Rate 250 g/ha, Preemergence): 9
Plant response rating, Cocklebur ([6]; Rate 35 g/ha): 0
Plant response rating, Cocklebur ([6]; Rate 70 g/ha): 0
Plant response rating, Cocklebur ([6]; Rate 140 g/ha): 5
Plant response rating, Common ragweed ([7]; Rate 35 g/ha): 10
Plant response rating, Common ragweed ([7]; Rate 70 g/ha): 20
Plant response rating, Common ragweed ([7]; Rate 140 g/ha): 75
Plant response rating, Corn ([8]; Rate 35 g/ha): 0
Plant response rating, Corn ([8]; Rate 70 g/ha): 5
Plant response rating, Corn ([8]; Rate 140 g/ha): 10
Plant response rating, Cotton ([9]; Rate 35 g/ha): 5
Plant response rating, Cotton ([9]; Rate 70 g/ha): 10
Plant response rating, Cotton ([9]; Rate 140 g/ha): 10
Plant response rating, Giant foxtail ([10]; Rate 35 g/ha): 70
Plant response rating, Giant foxtail ([10]; Rate 70 g/ha): 100
Plant response rating, Giant foxtail ([10]; Rate 140 g/ha): 100
Plant response rating, Ladysthumb ([11]; Rate 35 g/ha): 0
Plant response rating, Ladysthumb ([11]; Rate 70 g/ha): 20
Plant response rating, Ladysthumb ([11]; Rate 140 g/ha): 90
Plant response rating, Surinam grass ([12]; Rate 35 g/ha): 20
Plant response rating, Surinam grass ([12]; Rate 70 g/ha): 50
Plant response rating, Surinam grass ([12]; Rate 140 g/ha): 80
Plant response rating, Velvetleaf ([13]; Rate 35 g/ha): 5
Plant response rating, Velvetleaf ([13]; Rate 70 g/ha): 20
Plant response rating, Velvetleaf ([13]; Rate 140 g/ha): 70
